Laboratory results reported in the Kinase Knowledgebase extract (Sharma et al. 2016).

Each molecule was assayed against MAPK14 (human) (UniProt Q16539) (assay: Inhibition of MAPK14 Kinase Activity).
Chain of MAPK14 (human) (Q16539 whole entry, looked up): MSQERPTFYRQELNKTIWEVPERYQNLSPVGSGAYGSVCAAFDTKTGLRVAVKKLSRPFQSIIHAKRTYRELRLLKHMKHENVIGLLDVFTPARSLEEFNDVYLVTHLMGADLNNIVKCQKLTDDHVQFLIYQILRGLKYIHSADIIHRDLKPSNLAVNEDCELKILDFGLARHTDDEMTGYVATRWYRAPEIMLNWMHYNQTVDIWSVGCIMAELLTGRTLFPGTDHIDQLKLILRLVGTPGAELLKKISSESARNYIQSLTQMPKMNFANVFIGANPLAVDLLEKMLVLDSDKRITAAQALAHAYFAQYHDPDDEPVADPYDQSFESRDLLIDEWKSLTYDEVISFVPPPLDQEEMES
With `CC(C)NC(=O)c1csc(-c2oc(CNC(=O)c3ccc(-c4ccc(O)cc4)cc3)nc2-c2ccc(F)cc2)n1` the IC50 was ≤ 1 µM. With `CC(C)NC(=O)c1csc(-c2oc(CN3CCN(C(=O)Cc4cccc(O)c4)CC3)nc2-c2ccc(F)cc2)n1` the IC50 was ≤ 1 µM. For `CC(C)NC(=O)c1csc(-c2oc(CNC(=O)C3CCCCC3)nc2-c2ccc(F)cc2)n1`, the IC50 was ≤ 1 µM. `Cc1nc(-c2ccc(F)cc2)c(-c2nc(C(=O)NC(C)C)cs2)o1` was tested, and the IC50 was ≤ 1 µM. For `CC(C)NC(=O)c1csc(-c2c(-c3ccc(F)cc3)n[nH]c2C2CCN(C(=O)C(C)(C)O)CC2)n1`, the IC50 was ≤ 1 µM. In the case of `Cc1nc(-c2ccc(F)cc2)c(-c2nc(C(=O)NCc3ccc(C(F)(F)F)cc3)cs2)s1`, the IC50 is reported as ≤ 1 µM. With `CC(C)NC(=O)c1csc(-c2oc(CNC(=O)C(C)(C)C)nc2-c2ccc(F)cc2)n1` the IC50 was ≤ 1 µM. `Cc1nc(-c2ccc(F)cc2)c(-c2nc(C(=O)NCc3ccc(Cl)cc3Cl)cs2)s1` was tested, and the IC50 was ≤ 1 µM. `Cc1ccc(CNC(=O)c2csc(-c3sc(C)nc3-c3ccc(F)cc3)n2)cc1` was tested, and the IC50 was ≤ 1 µM. `CCOc1ccccc1CNC(=O)c1csc(-c2sc(C)nc2-c2ccc(F)cc2)n1` was tested, and the IC50 was ≤ 1 µM. For `CC(C)NC(=O)c1csc(-c2c(-c3ccc(F)cc3)n[nH]c2C2CCN(C(=O)c3ccccc3)CC2)n1`, the IC50 was ≤ 1 µM. In the case of `CCC(C)NC(=O)c1csc(-c2c(-c3ccc(F)cc3)n[nH]c2C2CCNCC2)n1` (centres undefined), the IC50 is reported as ≤ 1 µM. `CC(CO)NC(=O)c1csc(-c2c(-c3ccc(F)cc3)n[nH]c2C2CCNCC2)n1` (centres undefined) was tested, and the IC50 was ≤ 1 µM. For `Cc1nc(-c2ccc(F)cc2)c(-c2nc(C(=O)NCc3ccccc3OC(F)(F)F)cs2)s1`, the IC50 was ≤ 1 µM. In the case of `CC(=O)Nc1cccc(C(=O)N2CCC(c3[nH]nc(-c4ccc(F)cc4)c3-c3nc(C(=O)NC(C)C)cs3)CC2)c1`, the IC50 is reported as ≤ 1 µM. In the case of `CC(=O)c1cccc(NC(=O)c2csc(-c3sc(C)nc3-c3ccc(F)cc3)n2)c1`, the IC50 is reported as ≤ 1 µM. For `CC(C)NC(=O)c1csc(-c2oc(CNC(=O)c3cccc(Cl)c3[N+](=O)[O-])nc2-c2ccc(F)cc2)n1`, the IC50 was ≤ 1 µM. `Cc1nc(-c2ccc(F)cc2)c(-c2nc(C(=O)NCCc3ccccc3F)cs2)s1` was tested, and the IC50 was ≤ 1 µM. `COc1ccc(O)c(C(=O)N2CCN(Cc3nc(-c4ccc(F)cc4)c(-c4nc(C(=O)NC(C)C)cs4)o3)CC2)c1` was tested, and the IC50 was ≤ 1 µM. With `Cc1nc(-c2ccc(F)cc2)c(-c2nc(C(=O)NCc3ccc(F)c(Cl)c3)cs2)s1` the IC50 was ≤ 1 µM. With `Cc1nc(Br)sc1C(=O)NCc1nc(-c2ccc(F)cc2)c(-c2nc(C(=O)NC(C)C)cs2)o1` the IC50 was ≤ 1 µM. `CC(C)NC(=O)c1csc(-c2c(-c3ccc(F)cc3)n[nH]c2C2CCN(C(=O)C3CC(O)CN3C(=O)OC(C)(C)C)CC2)n1` (centres undefined) was tested, and the IC50 was ≤ 1 µM. `CC(C)NC(=O)c1csc(-c2oc(CNC(=O)c3c4ccccc4cc4ccccc34)nc2-c2ccc(F)cc2)n1` was tested, and the IC50 was ≤ 1 µM. With `CC(=O)NC(Cc1ccc(O)cc1)C(=O)NCc1nc(-c2ccc(F)cc2)c(-c2nc(C(=O)NC(C)C)cs2)o1` (centres undefined) the IC50 was ≤ 1 µM. In the case of `Cc1nc(-c2ccc(F)cc2)c(-c2nc(C(=O)NCCc3ccccc3Cl)cs2)s1`, the IC50 is reported as ≤ 1 µM. `CC(=O)c1cccc(NCc2onc(-c3ccc(F)cc3)c2-c2nc(C(=O)NC(C)C)cs2)c1` was tested, and the IC50 was ≤ 1 µM. For `CC(C)NC(=O)c1csc(-c2oc(CNC(=O)c3cscn3)nc2-c2ccc(F)cc2)n1`, the IC50 was ≤ 1 µM. With `CC(C)NC(=O)c1csc(-c2oc(CNC(=O)Cc3cccc(O)c3)nc2-c2ccc(F)cc2)n1` the IC50 was ≤ 1 µM. In the case of `CC(C)NC(=O)c1csc(-c2oc(CN3CCN(C(=O)C(Cl)(Cl)Cl)CC3)nc2-c2ccc(F)cc2)n1`, the IC50 is reported as ≤ 1 µM. For `CC(C)NC(=O)c1csc(-c2oc(CNC(=O)c3ccccc3Cl)nc2-c2ccc(F)cc2)n1`, the IC50 was ≤ 1 µM. With `CC(C)NC(=O)c1csc(-c2oc(CNC(=O)c3cc(O)ccc3O)nc2-c2ccc(F)cc2)n1` the IC50 was ≤ 1 µM. For `CC(C)NC(=O)c1csc(-c2c(-c3ccc(F)cc3)n[nH]c2C2CCN(C(=O)c3ccncc3)CC2)n1`, the IC50 was ≤ 1 µM. With `CC(C)NC(=O)c1csc(-c2c(-c3ccc(F)cc3)noc2CNC(=O)c2cccc3ccccc23)n1` the IC50 was ≤ 1 µM. `CC(C)NC(=O)c1csc(-c2oc(CN3CCN(C(=O)C(F)(F)F)CC3)nc2-c2ccc(F)cc2)n1` was tested, and the IC50 was ≤ 1 µM. For `CC(C)NC(=O)c1csc(-c2oc(CNC(=O)c3cccc(F)c3F)nc2-c2ccc(F)cc2)n1`, the IC50 was ≤ 1 µM. In the case of `CC(C)NC(=O)c1csc(-c2oc(CNC(=O)c3ccc(Cl)nc3)nc2-c2ccc(F)cc2)n1`, the IC50 is reported as ≤ 1 µM. For `C#CCNC(=O)c1csc(-c2c(-c3ccc(F)cc3)n[nH]c2C)n1`, the IC50 was ≤ 1 µM. With `CC(C)NC(=O)c1csc(-c2c(-c3ccc(F)cc3)noc2CNC(=O)CC#N)n1` the IC50 was ≤ 1 µM. In the case of `CC(C)NC(=O)c1csc(-c2oc(CNC(=O)c3ccncc3)nc2-c2ccc(F)cc2)n1`, the IC50 is reported as ≤ 1 µM. In the case of `COc1ccc(CNC(=O)c2csc(-c3sc(C)nc3-c3ccc(F)cc3)n2)cc1`, the IC50 is reported as ≤ 1 µM. With `CC(C)NC(=O)c1csc(-c2oc(CNC(=O)CC#N)nc2-c2ccc(F)cc2)n1` the IC50 was ≤ 1 µM. With `CC(C)NC(=O)c1csc(-c2oc(CNC(=O)C=Cc3ccc(Cl)cc3)nc2-c2ccc(F)cc2)n1` the IC50 was ≤ 1 µM. For `Cc1nc(-c2ccc(F)cc2)c(-c2nc(C(=O)NCc3ccccc3Cl)cs2)s1`, the IC50 was ≤ 1 µM. `CC(C)NC(=O)c1csc(-c2oc(CNC(=O)c3cc(Br)ccc3Cl)nc2-c2ccc(F)cc2)n1` was tested, and the IC50 was ≤ 1 µM. `CC(C)NC(=O)c1csc(-c2oc(CNC(=O)c3ccc(C=O)cc3)nc2-c2ccc(F)cc2)n1` was tested, and the IC50 was ≤ 1 µM. With `C#CCNC(=O)c1csc(-c2c(-c3ccc(F)cc3)ncn2C2CCNCC2)n1` the IC50 was ≤ 1 µM. `COC(=O)N1CCC(c2[nH]nc(-c3ccc(F)cc3)c2-c2nc(C(=O)NC(C)C)cs2)CC1` was tested, and the IC50 was ≤ 1 µM. `CC(C)NC(=O)c1csc(-c2oc(CNC(=O)c3cncc(Br)c3)nc2-c2ccc(F)cc2)n1` was tested, and the IC50 was ≤ 1 µM. `CC(C)NC(=O)c1csc(-c2c(-c3ccc(F)cc3)n[nH]c2C2CCN(C(=O)c3ncc[nH]3)CC2)n1` was tested, and the IC50 was ≤ 1 µM. `Cc1nc(-c2ccc(F)cc2)c(-c2nc(C(=O)NCCCNC(=O)OC(C)(C)C)cs2)s1` was tested, and the IC50 was ≤ 1 µM. For `CCNC(=O)c1csc(-c2c(-c3ccc(F)cc3)n[nH]c2C2CCN(C(=O)CO)CC2)n1`, the IC50 was ≤ 1 µM. In the case of `CC(C)NC(=O)c1csc(-c2oc(CNC(=O)c3cc([N+](=O)[O-])ccc3Cl)nc2-c2ccc(F)cc2)n1`, the IC50 is reported as ≤ 1 µM. With `CC(C)NC(=O)c1csc(-c2c(-c3ccc(F)cc3)n[nH]c2C2CCN(C(=O)CC#N)CC2)n1` the IC50 was ≤ 1 µM. For `CC(C)NC(=O)c1csc(-c2c(-c3ccc(F)cc3)n[nH]c2C2CCNCC2)n1`, the IC50 was ≤ 1 µM. For `CCCC(C)NC(=O)c1csc(-c2c(-c3ccc(F)cc3)n[nH]c2C2CCNCC2)n1` (centres undefined), the IC50 was ≤ 1 µM. With `O=C(NCc1ccccc1F)c1csc(-c2c(-c3ccc(F)cc3)n[nH]c2C2CCNCC2)n1` the IC50 was ≤ 1 µM. `CC(=O)NCc1nc(-c2ccc(F)cc2)c(-c2nc(C(=O)NC(C)C)cs2)[nH]1` was tested, and the IC50 was ≤ 1 µM. For `COc1cc(C=CC(=O)N2CCN(Cc3nc(-c4ccc(F)cc4)c(-c4nc(C(=O)NC(C)C)cs4)o3)CC2)ccc1O`, the IC50 was ≤ 1 µM. In the case of `CC(C)NC(=O)c1csc(-c2oc(CNC(=O)CC3=CC(Cl)=C(O)OC3)nc2-c2ccc(F)cc2)n1`, the IC50 is reported as ≤ 1 µM. In the case of `Cc1nc(-c2ccc(F)cc2)c(-c2nc(C(=O)NCc3ccc(N(C)C)cc3)cs2)s1`, the IC50 is reported as ≤ 1 µM. With `CC(C)NC(=O)c1csc(-c2oc(CN3CCN(C(=O)Cc4ccccc4O)CC3)nc2-c2ccc(F)cc2)n1` the IC50 was ≤ 1 µM. With `COc1ccncc1NC(=O)c1csc(-c2sc(C)nc2-c2ccc(F)cc2)n1` the IC50 was ≤ 1 µM. With `CC(C)NC(=O)c1csc(-c2oc(CNC(=O)c3c(F)cccc3F)nc2-c2ccc(F)cc2)n1` the IC50 was ≤ 1 µM. In the case of `CC(C)NC(=O)c1csc(-c2oc(CNC(=O)c3cc4ccccc4s3)nc2-c2ccc(F)cc2)n1`, the IC50 is reported as ≤ 1 µM. With `CC(C)NC(=O)c1csc(-c2c(-c3ccc(F)cc3)n[nH]c2C2CCN(C(=O)c3cccc(O)c3)CC2)n1` the IC50 was ≤ 1 µM. In the case of `Cc1onc(-c2ccc(F)cc2F)c1-c1ccn(C(=O)NC(C)C)n1`, the IC50 is reported as ≤ 1 µM. With `Cc1nc(-c2ccc(F)cc2)c(-c2nc(C(=O)NCc3cccc(Cl)c3)cs2)s1` the IC50 was ≤ 1 µM. `COc1ccccc1CC(=O)N1CCN(Cc2nc(-c3ccc(F)cc3)c(-c3nc(C(=O)NC(C)C)cs3)o2)CC1` was tested, and the IC50 was ≤ 1 µM. With `CCNC(=O)c1csc(-c2sc(C)nc2-c2ccc(F)cc2)n1` the IC50 was ≤ 1 µM. `CC(C)NC(=O)c1csc(-c2c(-c3ccc(F)cc3)noc2CNC(=O)C=Cc2ccccc2F)n1` was tested, and the IC50 was ≤ 1 µM. `CC(C)NC(=O)c1csc(-c2[nH][nH]c(=O)c2-c2ccc(F)cc2)n1` was tested, and the IC50 was ≤ 1 µM. With `Cc1onc(-c2ccc(Cl)cc2)c1-c1cc(C)n(C(=O)NC(C)C)n1` the IC50 was ≤ 1 µM. `Cc1nc(-c2ccc(F)cc2)c(-c2nc(C(=O)NCCCn3ccnc3)cs2)s1` was tested, and the IC50 was ≤ 1 µM. For `CC(C)NC(=O)c1csc(-c2oc(CNC(=O)c3c(F)cccc3Cl)nc2-c2ccc(F)cc2)n1`, the IC50 was ≤ 1 µM. For `CC(C)NC(=O)c1csc(-c2oc(CN3CCN(C(=O)c4cscn4)CC3)nc2-c2ccc(F)cc2)n1`, the IC50 was ≤ 1 µM. In the case of `CC(C)NC(=O)c1csc(-c2[nH]c(CN3CCNCC3)nc2-c2ccc(F)cc2)n1`, the IC50 is reported as ≤ 1 µM. `CC(C)NC(=O)c1csc(-c2oc(CNCCC(C)(C)C)nc2-c2ccc(F)cc2)n1` was tested, and the IC50 was ≤ 1 µM. With `Cc1nc(-c2ccc(F)cc2)c(-c2nc(C(=O)NCc3ccc(F)c(F)c3)cs2)s1` the IC50 was ≤ 1 µM. With `Cc1onc(-c2ccc(F)c(Cl)c2)c1-c1ccn(C(=O)NC(C)C)n1` the IC50 was ≤ 1 µM. For `CC(C)NC(=O)c1csc(-c2oc(CN3CCN(C(=O)CC#N)CC3)nc2-c2ccc(F)cc2)n1`, the IC50 was ≤ 1 µM. `CC(C)NC(=O)c1csc(-c2oc(CN3CCN(C(=O)c4ccc(-c5ccc(O)cc5)cc4)CC3)nc2-c2ccc(F)cc2)n1` was tested, and the IC50 was ≤ 1 µM. `CC(C)NC(=O)c1csc(-c2oc(CNC(=O)c3ccncc3Cl)nc2-c2ccc(F)cc2)n1` was tested, and the IC50 was ≤ 1 µM. With `COc1ccc(CCNC(=O)c2csc(-c3sc(C)nc3-c3ccc(F)cc3)n2)cc1` the IC50 was ≤ 1 µM. In the case of `Cc1cccc([N+](=O)[O-])c1C(=O)NCc1nc(-c2ccc(F)cc2)c(-c2nc(C(=O)NC(C)C)cs2)o1`, the IC50 is reported as ≤ 1 µM. `Cc1onc(-c2ccc(Cl)cc2)c1-c1ccn(C(=O)NC2CCCC2)n1` was tested, and the IC50 was ≤ 1 µM. For `CC(C)NC(=O)c1csc(-c2oc(CNC(=O)Cc3ccccc3O)nc2-c2ccc(F)cc2)n1`, the IC50 was ≤ 1 µM. In the case of `CC(C)NC(=O)c1csc(-c2oc(CNC(=O)c3cccnc3)nc2-c2ccc(F)cc2)n1`, the IC50 is reported as ≤ 1 µM. In the case of `COc1cc(OC)c(C(=O)N2CCN(Cc3nc(-c4ccc(F)cc4)c(-c4nc(C(=O)NC(C)C)cs4)o3)CC2)cc1OC`, the IC50 is reported as ≤ 1 µM. In the case of `CC(C)NC(=O)c1csc(-c2oc(CN3CCN(C(=O)C=Cc4ccccc4O)CC3)nc2-c2ccc(F)cc2)n1`, the IC50 is reported as ≤ 1 µM.
